According to ChEMBL document CHEMBL1130050, “Novel conformationally extended naphthalene-based inhibitors of farnesyltransferase” (J Med Chem, 1997):
Square brackets hold non-standard residues; d marks the D form. Peptide text beside a SMILES is read from it. Tic = O=C(O)[C@@H]1Cc2ccccc2CN1; NMeM = CN[C@@H](CCSC)C(=O)O; NMeV = CN[C@H](C(=O)O)C(C)C; Nle = CCCC[C@H](N)C(=O)O

Assays:
[1] = target: T1, Protein farnesyltransferase (Homo sapiens, UniProt P49354+P49356); assay: Inhibition of [3H]FPP incorporation into human Ha-Ras by farnesyltransferase; type: protein-complex assay
[2] = target: T1, Protein farnesyltransferase; assay: Inhibition of [3H]FPP incorporation into human Ki-Ras by farnesyltransferase; type: protein-complex assay
[3] = target: T1, Protein farnesyltransferase; assay: Ratio of FTase IC50 values compared to compound 5; type: protein-complex assay
[4] = target: T1, Protein farnesyltransferase; assay: Ratio of FTase IC50 values compared to compound 8; type: protein-complex assay
[5] = target: T1, Protein farnesyltransferase; assay: Percent inhibition of Ha-Ras protein processing in THAC (Ha-ras-transformed CCL39) cells at 10 uM; type: functional

| Structure (SMILES) | IC50 [1] | Ratio [3] | inhibition [5] | other results |
| --- | --- | --- | --- | --- |
| CSCC[C@H](NC(=O)c1cccc2cc(NC(=O)[C@@H](N)CS)ccc12)C(=O)O | 60 nM |  |  | IC50 [2]: 1250 nM |
| CSCC[C@H](/N=C(\S)c1cccc2c(NC[C@@H](N)CS)cccc12)C(=O)O |  | 0.9 |  |  |
| CCCC[C@H](NC(=O)[C@H](Cc1ccccc1)NC(=O)[C@@H](NC(=O)[C@@H](N)CS)C(C)C)C(=O)O (H-CVF[Nle]-OH) | 950 nM |  |  | Ratio [4]: 26 |
| CCCC[C@H](NC(=O)c1cccc2c(NC[C@@H](N)CS)cccc12)C(=O)O | 44 nM | 8 |  |  |
| COC(=O)[C@H](CCSC)NC(=O)c1cccc2cc(NC[C@@H](N)CS)ccc12 |  |  | > 50% | IC50 [2]: 500 nM |
| CSCC[C@H](NC[C@H](Cc1ccccc1)NC(=O)[C@@H](NC(=O)[C@@H](N)CS)C(C)C)C(=O)O |  |  |  | Ratio [4]: 60 |
| CSCC[C@H](NC(=O)c1cccc2cc(NC[C@@H](N)CS)ccc12)C(=O)O |  |  | 10% | IC50 [2]: 17.5 nM |
| COC(=O)[C@H](CCSC)NC(=O)c1cccc2c(NC[C@@H](N)CS)cccc12 | 325 nM | 58 | 20% |  |
| CSCC[C@H](NCc1cccc2c(NC[C@@H](N)CS)cccc12)C(=O)O |  | 54 |  |  |
| CSCC[C@H](/N=C(\S)[C@H](Cc1ccccc1)NC(=O)[C@@H](NC(=O)[C@@H](N)CS)C(C)C)C(=O)O |  |  |  | Ratio [4]: 0.5 |
| CSCC[C@H](NC(=O)c1cccc2c(NC(=O)[C@@H](N)CS)cccc12)C(=O)O |  |  | 0% |  |
| CSCC[C@H](NC(=O)[C@@H]1Cc2ccccc2CN1C(=O)[C@H](C(C)C)N(C)C(=O)[C@@H](N)CS)C(=O)O (H-C[NMeV][Tic]M-OH) |  |  | 0% |  |
| CSCC[C@H](NC(=S)c1cccc2c(NC[C@@H](N)CS)cccc12)C(=O)O | 4.8 nM |  |  |  |
| CSCC[C@@H](C(=O)O)N(C)C(=O)c1cccc2c(NC[C@@H](N)CS)cccc12 | 210 nM | 37.5 |  |  |
| CSCC[C@H](NC(=S)[C@H](Cc1ccccc1)NC(=O)[C@@H](NC(=O)[C@@H](N)CS)C(C)C)C(=O)O | 17 nM |  |  |  |
| CSCC[C@H](NC(=O)c1cccc2c(NC[C@@H](N)CS)cccc12)C(=O)O |  | 1 | 0% |  |
| COC(=O)[C@H](CCSC)NC(=O)[C@H](Cc1ccccc1)NC(=O)[C@@H](NC(=O)[C@@H](N)CS)C(C)C (H-CVFM-OMe) | 3400 nM |  |  | Ratio [4]: 92 |
| CSCC[C@@H](C(=O)O)N(C)C(=O)[C@H](Cc1ccccc1)NC(=O)[C@@H](NC(=O)[C@@H](N)CS)C(C)C (H-CVF[NMeM]-OH) | 1400 nM |  |  | Ratio [4]: 38 |
